Results published in patent US20250353841A1 (BIOGEN MA INC., priority 2022, published 2025).

These compounds were tested on mutant Huntington (HTT) protein (assay: HTT Mutant HTRF iPSC assay (mHTT protein lowering)). Details: human iPSC derived from a HTT patient with a poly-Q49 mutation.
Format: cell-based
`Cc1cn2nc(-c3cc(F)c4[nH]c(C5CC6(CCNC6)C5)nc4c3)cc(C)c2n1` (centres unmarked) [Compound 420, 6-(7-fluoro-2-(6-azaspiro[3.4]octan-2-yl)-1H-benzo[d]imidazol-5-yl)-2,8-dimethylimidazo[1,2-b]pyridazine] was tested, and the IC50 was 0.1 to 1 µM.
Work on `Cc1cn2nc(-c3cn4cc(C5CCN(C)CC5)cc(F)c4n3)cc(C)c2n1` [Compound 133, 6-[8-fluoro-6-(1-methyl-4-piperidyl)imidazo[1,2-a]pyridin-2-yl]-2,8-dimethyl-imidazo[1,2-b]pyridazine] yielded an IC50 of 1 to 9 µM.
`CCC(=O)N1CCC(c2cn3cc(-c4cc(C)c5nc(C)cn5n4)cc(F)c3n2)CC1` [Compound 120, 1-[4-[6-(2,8-dimethylimidazo[1,2-b]pyridazin-6-yl)-8-fluoro-imidazo[1,2-a]pyridin-2-yl]-1-piperidyl]propan-1-one] showed an IC50 of 0.1 to 1 µM.
Compound `Cc1cn2nc(-c3cc(F)c4nc(NC5CC(C)NC(C)C5)oc4c3)cc(C)c2n1` (centres unmarked) [Compound 484, 6-(2,8-dimethylimidazo[1,2-b]pyridazin-6-yl)-N-(2,6-dimethylpiperidin-4-yl)-4-fluorobenzo[d]oxazol-2-amine] has an IC50 of less than 0.1 µM.
`Cc1cn2nc(-c3cc(F)c4nc(NC(=O)CC5CNC5)cn4c3)cc(C)c2n1` [Compound 281, 2-(azetidin-3-yl)-N-(6-(2,8-dimethylimidazo[1,2-b]pyridazin-6-yl)-8-fluoroimidazo[1,2-a]pyridin-2-yl)acetamide] showed an IC50 of less than 0.1 µM.
`Cc1cn2nc(-c3cc(F)c4nc(C5CCN(C6COC6C)CC5)cn4c3)cc(C)c2n1` (centres unmarked) [Compound 213, 6-(8-fluoro-2-(1-(2-methyloxetan-3-yl)piperidin-4-yl)imidazo[1,2-a]pyridin-6-yl)-2,8-dimethylimidazo[1,2-b]pyridazine] gave an IC50 of 0.1 to 1 µM.
For `Cn1cc2cc(-c3cc(F)c4nn(C5CCNCC5)nc4c3)cc(F)c2n1` [Compound 138, 4-fluoro-6-(7-fluoro-2-methyl-2H-indazol-5-yl)-2-(piperidin-4-yl)-2H-benzo[d][1,2,3]triazole], the IC50 was 0.1 to 1 µM.
Compound `Cc1cn2nc(-c3cc(F)c4nc(NC(=O)C5CCCNC5)nn4c3)cc(C)c2n1` (single isomer, unassigned) [Compound 315] has an IC50 of 0.1 to 1 µM.
Work on `Cc1cn2nc(-c3cc(F)c4nc(C5CCC(N(C)C)CC5)cn4c3)cc(C)c2n1` (centres unmarked) [Compound 168, 4-(6-(2,8-dimethylimidazo[1,2-b]pyridazin-6-yl)-8-fluoroimidazo[1,2-a]pyridin-2-yl)-N,N-dimethylcyclohexan-1-amine] yielded an IC50 of less than 0.1 µM.
`Cn1nnc2ccc(-c3cc(F)c4nc(C5CCNCC5)cn4c3)cc21` [Compound 29, 6-(8-fluoro-2-(piperidin-4-yl)imidazo[1,2-a]pyridin-6-yl)-1-methyl-1H-benzo[d][1,2,3]triazole] showed an IC50 of 0.1 to 1 µM.
`Cc1cn2nc(-c3cc(F)c4nc(C5CCN(CC(F)F)CC5)cn4c3)cc(C)c2n1` [Compound 174, 6-(2-(1-(2,2-difluoroethyl)piperidin-4-yl)-8-fluoroimidazo[1,2-a]pyridin-6-yl)-2,8-dimethylimidazo[1,2-b]pyridazine] gave an IC50 of 0.1 to 1 µM.
`COCCN1C[C@@H]2[C@H](C1)[C@H]2c1cn2cc(-c3cc(C)c4nc(C)cn4n3)cc(F)c2n1` [Compound 187, 6-(8-fluoro-2-((1R,5S,6r)-3-(2-methoxyethyl)-3-azabicyclo[3.1.0]hexan-6-yl)imidazo[1,2-a]pyridin-6-yl)-2,8-dimethylimidazo[1,2-b]pyridazine] gave an IC50 of less than 0.1 µM.
`COCCN1CCC(c2cn3cc(-c4cc(C)c5nc(C)cn5n4)cc(F)c3n2)CC1` [Compound 46, 6-[8-fluoro-2-[1-(2-methoxyethyl)-4-piperidyl]imidazo[1,2-a]pyridin-6-yl]-2,8-dimethyl-imidazo[1,2-b]pyridazine] showed an IC50 of less than 0.1 µM.
With `Cc1cn2nc(-c3cc(F)c4nc(C5CC6(CCNCC6)C5)cn4c3)cc(C)c2n1` [Compound 78, 6-(8-fluoro-2-(7-azaspiro[3.5]nonan-2-yl)imidazo[1,2-a]pyridin-6-yl)-2,8-dimethylimidazo[1,2-b]pyridazine] the IC50 was less than 0.1 µM.
